Each structure is given as a SMILES string. Values joined by “and” are separate entries in the source; they are usually repeats but may differ in a detail not shown here. Equal entries are not always repeated. “Also recorded” adds a separate entry of the source.

The conditions of series [1]: 37 °C at neutral pH; cited from earlier work.
A short description of series [2]: ORAC(o) assay: oxygen radical absorbance capacity by dissolved oxygen. The format is biochemical. The following applies: quercetin sample at 10µg/mL. The arrangement: unit not given here. The protocol:
Method of Measuring Antioxidant Activity. In operation, the ORAC(o) assay of the present invention was used to evaluate antioxidant compositions, combinations and the like of solutions against a target molecule (linoleic acid) with oxygen present at equilibrium with the air. A free radical initiator is added and the time it takes for oxygen to disappear is measured, yielding the rate of disappearance. Trolox® is used as the standard, and a blank is run as a control. Amount of dissolved oxygen vs. time is plotted allowing direct comparison of net areas under the curve. A detailed method is as follows: Buffers (K2HPO4 (F.W. 174.2), NaH2PO4 (FW 120.0)) were obtained from Sigma (St. Louis, MO). […] HPLC grade acetone was obtained from Fisher (Hampton, NH). A YSI […] biological oxygen meter was obtained from YSI (Yellow Springs, Ohio) and used according to the manufacturer's specifications. ORAC(o) Method. The following stock solutions were used. […] Weigh 65.33g into 500mL of volumetric flask, and add dH20 to the mark. Concentration is 750 mM. Store 750 mM K2HPO4 stock solution in a refrigerator (2 to 8°C) equipped with a calibrated thermometer. Target temperature is 4°C. 750mM NaH2PO4 (FW 120.0); Weigh 45.00 g into 500 mL of volumetric flask, and add dH20 to the mark. […] Keep covered at room temperature until ready to use. […]

A short description of series [3]: ORAC(fl) assay (fluorescein, method of Ou et al.). The format is biochemical. The note with it: mixed at different ratios with quercetin; standard acetone:water solution. The procedure: Prior Art Method of Measuring Antioxidant Activity for Comparison. For the ORAC(fl) assay, the method of Ou et al. (Ou , B., Hampsch-Woodill, M. and Prior, R.L., J. Agric. Food Chem. 2001, 49, 4619-4626) was followed. Differences from the Ou procedure as published included the speed of the orbital shaker (Ou, 400 rpm; herein, 280 rpm), and the centrifuge speed (Ou, 14,000 rpm, 15 min; herein, 3200 rpm, 15 min and the length of the assay (Ou, 30 min; herein, 100 min). Fluorescein, sodium salt, was obtained from Aldrich (Milwaukee, WI). For the Ou method, a standard amount of fluorescein is added to an antioxidant product being tested, and the beginning level of fluorescence is measured. A free radical initiator is added, and the time and degree of disappearance of fluorescence are measured. Trolox®, 6-Hydroxy-2,5,7,8-tetramethylchroman-2-carboxylic Acid, is a cell-permeable, water-soluble derivative of vitamin E with potent antioxidant properties. Trolox® prevents peroxynitrite-mediated oxidative stress and apoptosis in rat thymocytes and is a synthetic antioxidant that is consistent from lot-to-lot and is used as the standard and run for comparison with each sample. A blank (control) used in calculations of the ORAC(o) value for each samples may be included in each run. Fluorescence vs. time is plotted. The blank (control) is subtracted from every curve. […]

For `CC(C)(N=NC(C)(C)C(=N)N)C(=N)N.Cl.Cl` [AAPH, 2,2' azobis (2-amidinopropane) dihydrochloride], the half life entry in series [1] is “about 175 hours”.

On to `O=c1c(O)c(-c2ccc(O)c(O)c2)oc2cc(O)cc(O)c12` [quercetin], for which, in series [2] (each day an average of 3 runs, 5 day precision trial), the “Area Under Curve (AUC)” value was 202.7 and 212.9 and 187 and 202.9 and 213.1. In series [2] (single runs of single day precision trial), the Area under curve was 207.4 and 198.2 and 205 and 201.6 and 202.1. Turning to `Cc1c(C)c2c(c(C)c1O)CC[C@@](C)(CCC[C@H](C)CCC[C@H](C)CCCC(C)C)O2` [α-tocopherol], the “contribution of α-tocopherol to AO activity” value in series [3] is “no contribution to AO activity; also recorded: no statistically significant activity”.
